Consider 15 compounds from patent US4430345A, “Prostaglandins” (National Research Development Corporation, priority 1979, dated 1984).

For assay [1], the system named is rabbit aorta (thromboxane receptor sites). The assay is described as follows: Rabbit aorta system: antagonism of contraction by 11,9-(epoxymethano) PGH2. The settings on record: for Kb: Oryctolagus cuniculus, 0.5 h, Gaddum-Schild Equation, read-out: AFFINITY CONSTANTS, Rabbit Aorta (converted); for Kb / Rabbit Aorta, affinity constant not given: against 11,9-(epoxymethano) PGH2, compound added 30 minutes previously. In kind it is cell-based. Also noted: key to Rabbit Aorta, affinity constant not given: (2): Partial agonist. The source says:
It is believed that such inhibition is the result of the compounds being thromboxane antagonists and the activity of the compounds is for convenience hereinafter discussed in these terms. […] Structural features which tend to endow a compound with a more pure antagonist form of activity are (a) the absence of a halogen substituent, particularly at the para position, in the benzene ring of a phenoxyethyl O-substituted oxime; (b) the absence of a halogen substituent at the meta position of a benzyl O-substituted oxime; and (c) the presence of two benzene rings in the oxime substituent,these rings being located, for example, on a carbon atom joined directly to the oxygen atom of the oxime group. Some activity has also been alserved in compounds according to the present invention on guinea pig tracheal muscle.
Spiral strips of thoracic aorta are suspended in Kreb's-Henseleit solution and aerated with 95% O2 /5% CO2 at 37° C. Tension changes are recorded with a Grass FTO3 force transducer. Initially, cumulative dose response curves to 11,9-(epoxymethano) PGH2 (2×10^-9, 1×10^-8, 5×10^-8 and 2.5×10^-7 M) are obtained. In a second experiment the individual compounds are added 30 minutes previously to the addition of the series of agonist doses. Affinity constants are calculated as above.
(§1) Results typical of those obtained for the various compounds (all of which are of the formula shown at the beginning of Example 4 except where otherwise indicated) are shown in Table 3.

The target in assay [2] is T1, human platelets (thromboxane receptor sites) (Homo sapiens, UniProt P21731).
T1 construct: Platelet-rich plasma is obtained from fresh, citrated human blood; endogenous in cells; host or cells: human platelets (platelet-rich plasma from fresh, citrated human blood)
T1 sequence (P21731 1-343): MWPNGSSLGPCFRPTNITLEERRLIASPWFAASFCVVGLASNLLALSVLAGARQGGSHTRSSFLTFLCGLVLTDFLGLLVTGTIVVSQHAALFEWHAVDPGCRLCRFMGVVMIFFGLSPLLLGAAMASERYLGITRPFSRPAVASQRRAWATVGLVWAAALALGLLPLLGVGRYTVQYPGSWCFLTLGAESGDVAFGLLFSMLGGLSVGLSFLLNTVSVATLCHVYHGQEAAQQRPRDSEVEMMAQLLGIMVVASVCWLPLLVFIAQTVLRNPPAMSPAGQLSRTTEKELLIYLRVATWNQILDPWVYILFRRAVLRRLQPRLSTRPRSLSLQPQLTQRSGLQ
The assay is described as follows: Human platelet system: antagonism of aggregation by 11,9-(epoxymethano) PGH2. In kind it is cell-based. Particulars: for Kb: against 11,9-epoxymethano analogue of PGH2, compound added 5 minutes previously, Gaddum-Schild Equation, read-out: AFFINITY CONSTANTS (KB), Human Platelets (converted). The protocol:
Platelet-rich plasma is obtained from fresh, citrated human blood. Addition of the 11,9-epoxymethano analogue of PGH2 (1×10^-7 M to 5×10^-7 M) causes immediate aggregation recorded as an increase in light transmission (600 nm). In a second experiment the individual compounds are added 5 minutes previously to addition of the PGH2 analogue. The dose of the PGH2 analogue added is then increased to a level which gives a similar response to that obtained in the absence of antagonist. The affinity constant, KB, for the compound is calculated according to the Gaddum-Schild Equation (based on Law of Mass Action).
[B]=molar concentration of compound
as §1

Assay [3] deals with α-adrenoceptors. The assay is described as follows: Rabbit aorta strip: block of the contractile action of noradrenaline. In kind it is cell-based.
For assay [4], the system named is platelets, archidonic acid. Kind of assay: Platelets: block of the aggregatory action of arachidonic acid. Particulars: converted to TXA2 by the platelet enzyme system. In kind it is cell-based, human.

For the compound `O=C(O)CCC/C=C\C[C@@H]1[C@@H](C=NOCc2ccccc2)[C@@H]2C=C[C@H]1C2` (relative stereo), the values for the Kb in assay [1] and in assay [2] were 0.667 µM and 5.26 µM, respectively.
With `O=C(O)CCC/C=C\C[C@@H]1[C@@H](C=NOCc2ccc(Cl)cc2)[C@@H]2C=C[C@H]1C2` (relative stereo), the Kb is 0.149 µM in assay [1] and 4.76 µM in assay [2].
As to `O=C(O)CCC/C=C\C[C@@H]1[C@@H](C=NOC(c2ccccc2)c2ccccc2)[C@@H]2C=C[C@H]1C2` (relative stereo), the Kb in assay [1] was 1.69 µM; in assay [2] it was 0.0196 µM.
`O=C(O)CCC/C=C\C[C@@H]1[C@@H](C=NOCCOc2ccccc2)[C@@H]2C=C[C@H]1C2` (relative stereo): the Kb is 0.4 µM in assay [1] and 20 µM in assay [2].
With `O=C(O)CCC/C=C\C[C@@H]1[C@@H](C=NOCCOc2ccc(Cl)cc2)[C@@H]2C=C[C@H]1C2` (relative stereo), in assay [1], the “Rabbit Aorta, affinity constant not given” value was “(2)”. Also, in assay [2], the Kb is 10 µM.
Regarding `O=C(O)CCC/C=C\C[C@@H]1[C@@H](C=NOCCOc2ccc(F)cc2)[C@@H]2C=C[C@H]1C2` (relative stereo), the “Rabbit Aorta, affinity constant not given” value in assay [1] was “(2)”. Further, the Kb in assay [2] is 25 µM.
Take `O=C(O)CCC/C=C\C[C@H]1[C@H]2CC[C@H](C2)[C@@H]1C=NOCc1ccc(F)cc1` (relative stereo): the Kb in assay [1] was 0.435 µM; in assay [2] it was 1.72 µM.
`O=C(O)CCC/C=C\C[C@H]1[C@H]2CC[C@H](C2)[C@@H]1C=NOCc1cccc(C(F)(F)F)c1` (relative stereo): the “Rabbit Aorta, affinity constant not given” value in assay [1] is given as “(2)”.
Take `O=C(O)CCC/C=C\C[C@H]1[C@H]2CC[C@H](C2)[C@@H]1C=NOCc1cccc(Cl)c1` (relative stereo): the “Rabbit Aorta, affinity constant not given” value in assay [1] is “(2)”. In addition, the Kb in assay [2] is 1.69 µM.
On to `O=C(O)CCC/C=C\C[C@H]1[C@H]2CC[C@H](C2)[C@@H]1C=NOCc1ccc(Cl)cc1Cl` (relative stereo), for which the figures for the Kb in assay [1] and in assay [2] were 0.238 µM and 3.57 µM, respectively.
Turning to `O=C(O)CCC/C=C\C[C@H]1[C@H]2CC[C@H](C2)[C@@H]1C=NOC(c1ccccc1)c1ccccc1` (relative stereo), the Kb in assay [1] is 5.26 µM; in assay [2] it was 0.0208 µM.
For `O=C(O)CCCCCC[C@H]1[C@H]2CC[C@H](C2)[C@@H]1C=NOCc1ccc(F)cc1` (relative stereo), the Kb in assay [2] is 12 µM.
In the case of `CCCCCON=C[C@H]1[C@@H]2CC[C@@H](C2)[C@@H]1C/C=C\CCCC(=O)O` (relative stereo) [(CH2)4 CH3], the values for the Kb in assay [1] and in assay [2] were 6.67 µM and 5.88 µM, respectively.
`O=C(O)CCC/C=C\C[C@@H]1[C@@H](C=NOCc2ccc(F)cc2)[C@@H]2C=C[C@H]1C2` (relative stereo) [Example 1, 5-endo-(6'-Carboxyhex-2'-Z-enyl)-6-exo-(O-p-fluorobenzyloxyiminomethyl)-bicyclo[2,2,1]hept-2Z-ene]: the “block of contractile action of noradrenaline (in words)” value in assay [3] is reported as “do not block the contractile action of noradrenaline”. Further, the “block of aggregatory action of archidonic acid (in words)” value in assay [4] is given as “block the aggregatory action of archidonic acid”. In assay [1] (11,9-(epoxymethano) PGH2, rabbit aorta strip), the “activity in the rabbit aorta strip test (in words)” value was “pure antagonists in the rabbit aorta strip test”. Also, the “activity in the platelet test (in words)” value in assay [2] (11,9-(epoxymethano) PGH2, human platelets in vitro) is on record as “antagonists in the platelet test”.
`O=C(O)CCC/C=C\C[C@@H]1[C@@H](C=NOCc2ccc(F)cc2)[C@@H]2C=C[C@H]1C2` (relative stereo) [drawing 29]: the Kb was 0.278 µM in assay [1] and 2.5 µM in assay [2].
